# According to patent publication US11331369B2, “Endoparasitic depsipeptides” (Zoetis Services LLC, priority 2017, dated 2022):
# Key:
# [1] = test system: microfilariae of Dirofilaria immitis; experiment: Dirofilaria immitis, Microfilaria (DiMF) In vitro Assay; type: cell-based; settings: 72 h, read-out: DiMF Minimum Effective Dose (MED), approximately 72 hours incubation, microfilariae assessed for survival or paralysis
# [2] = test system: third stage larvae of Haemonchus contortus; experiment: Haemonchus contortus L3 (HcL3) Assay; type: cell-based; settings: 96 h, read-out: HcL3 Minimum Effective Dose (MED)
compound,measurement,setting,value
"Cc1cc(C)n(Cc2ccc(C[C@H]3OC(=O)[C@H](CC(C)C)N(C)C(=O)[C@@H](C)OC(=O)[C@H](CC(C)C)N(C)C(=O)[C@@H](Cc4ccccc4)OC(=O)[C@H](CC(C)C)N(C)C(=O)[C@@H](C)OC(=O)[C@H](CC(C)C)N(C)C3=O)cc2)n1 [Example 2-7, (3S,6R,9S,12R,15S,18R,21S,24R)-6-benzyl-18-[[4-[(3,5-dimethylpyrazol-1-yl)methyl]phenyl]methyl]-3,9,15,21-tetraisobutyl-4,10,12,16,22,24-hexamethyl-1,7,13,19-tetraoxa-4,10,16,22-tetrazacyclotetracosane-2,5,8,11,14,17,20,23-octaone]",minimal effective concentration,[1],0.001 to 0.01 µM
same,minimal effective concentration,[2],1 to 10 µM
"CC(C)C[C@H]1C(=O)O[C@H](Cc2ccc(Cn3cc(CO)cn3)cc2)C(=O)N(C)[C@@H](CC(C)C)C(=O)O[C@H](C)C(=O)N(C)[C@@H](CC(C)C)C(=O)O[C@H](Cc2ccccc2)C(=O)N(C)[C@@H](CC(C)C)C(=O)O[C@H](C)C(=O)N1C [Example 2-19, (3S,6R,9S,12R,15S,18R,21S,24R)-6-benzyl-18-(4-((4-(hydroxymethyl)-1H-pyrazol-1-yl)methyl)benzyl)-3,9,15,21-tetraisobutyl-4,10,12,16,22,24-hexamethyl-1,7,13,19-tetraoxa-4,10,16,22-tetraazacyclotetracosan-2,5,8,11,14,17,20,23-octaone]",minimal effective concentration,[1],0.001 to 0.01 µM
same,minimal effective concentration,[2],1 to 10 µM
"CC(C)C[C@H]1C(=O)O[C@H](Cc2ccc(Cn3cc(-c4ccncn4)cn3)cc2)C(=O)N(C)[C@@H](CC(C)C)C(=O)O[C@H](C)C(=O)N(C)[C@@H](CC(C)C)C(=O)O[C@H](Cc2ccccc2)C(=O)N(C)[C@@H](CC(C)C)C(=O)O[C@H](C)C(=O)N1C [Example 2-45, (3S,6R,9S,12R,15S,18R,21S,24R)-6-benzyl-3,9,15,21-tetraisobutyl-4,10,12,16,22,24-hexamethyl-18-(4-((4-(pyrimidin-4-yl)-1H-pyrazol-1-yl)methyl)benzyl)-1,7,13,19-tetraoxa-4,10,16,22-tetraazacyclotetracosan-2,5,8,11,14,17,20,23-octaone]",minimal effective concentration,[1],0.001 to 0.01 µM
same,minimal effective concentration,[2],1 to 10 µM
"CC(C)C[C@H]1C(=O)O[C@H](Cc2ccc(Cn3nccc3C(C)(C)C)cc2)C(=O)N(C)[C@@H](CC(C)C)C(=O)O[C@H](C)C(=O)N(C)[C@@H](CC(C)C)C(=O)O[C@H](Cc2ccccc2)C(=O)N(C)[C@@H](CC(C)C)C(=O)O[C@H](C)C(=O)N1C [Example 2-68, (3S,6R,9S,12R,15S,18R,21S,24R)-6-benzyl-18-(4-((5-(tert-butyl)-1H-pyrazol-1-yl)methyl)benzyl)-3,9,15,21-tetraisobutyl-4,10,12,16,22,24-hexamethyl-1,7,13,19-tetraoxa-4,10,16,22-tetraazacyclotetracosan-2,5,8,11,14,17,20,23-octaone]",minimal effective concentration,[1],0.01 to 0.1 µM
same,minimal effective concentration,[2],1 to 10 µM
"CC(C)C[C@H]1C(=O)O[C@H](Cc2ccc(Cn3ccc(C4CC4)n3)cc2)C(=O)N(C)[C@@H](CC(C)C)C(=O)O[C@H](C)C(=O)N(C)[C@@H](CC(C)C)C(=O)O[C@H](Cc2ccccc2)C(=O)N(C)[C@@H](CC(C)C)C(=O)O[C@H](C)C(=O)N1C [Example 2-74, (3S,6R,9S,12R,15S,18R,21S,24R)-6-benzyl-18-(4-((3-cyclopropyl-1H-pyrazol-1-yl)methyl)benzyl)-3,9,15,21-tetraisobutyl-4,10,12,16,22,24-hexamethyl-1,7,13,19-tetraoxa-4,10,16,22-tetraazacyclotetracosan-2,5,8,11,14,17,20,23-octaone]",minimal effective concentration,[1],0.001 to 0.01 µM
same,minimal effective concentration,[2],1 to 10 µM
"Cc1nn(Cc2ccc(C[C@H]3OC(=O)[C@H](CC(C)C)N(C)C(=O)[C@@H](C)OC(=O)[C@H](CC(C)C)N(C)C(=O)[C@@H](Cc4ccccc4)OC(=O)[C@H](CC(C)C)N(C)C(=O)[C@@H](C)OC(=O)[C@H](CC(C)C)N(C)C3=O)cc2)c(C)c1F [Example 2-79, (3S,6R,9S,12R,15S,18R,21S,24R)-6-benzyl-18-(4-((4-fluoro-3,5-dimethyl-1H-pyrazol-1-yl)methyl)benzyl)-3,9,15,21-tetraisobutyl-4,10,12,16,22,24-hexamethyl-1,7,13,19-tetraoxa-4,10,16,22-tetraazacyclotetracosan-2,5,8,11,14,17,20,23-octaone]",minimal effective concentration,[1],0.01 to 0.1 µM
same,minimal effective concentration,[2],1 to 10 µM
"CC(C)C[C@H]1C(=O)O[C@H](Cc2ccc(Cn3ccc(N)n3)cc2)C(=O)N(C)[C@@H](CC(C)C)C(=O)O[C@H](C)C(=O)N(C)[C@@H](CC(C)C)C(=O)O[C@H](Cc2ccccc2)C(=O)N(C)[C@@H](CC(C)C)C(=O)O[C@H](C)C(=O)N1C [Example 2-87, (3S,6R,9S,12R,15S,18R,21S,24R)-6-(4-((3-amino-1H-pyrazol-1-yl)methyl)benzyl)-18-benzyl-3,9,15,21-tetraisobutyl-4,10,12,16,22,24-hexamethyl-1,7,13,19-tetraoxa-4,10,16,22-tetraazacyclotetracosan-2,5,8,11,14,17,20,23-octaone]",minimal effective concentration,[1],0.001 to 0.01 µM
same,minimal effective concentration,[2],1 to 10 µM
"CC(C)C[C@H]1C(=O)O[C@H](Cc2ccc(Cn3ccnc3C3CC3)cc2)C(=O)N(C)[C@@H](CC(C)C)C(=O)O[C@H](C)C(=O)N(C)[C@@H](CC(C)C)C(=O)O[C@H](Cc2ccc(Cn3ccnc3C3CC3)cc2)C(=O)N(C)[C@@H](CC(C)C)C(=O)O[C@H](C)C(=O)N1C [Example 6-7, (3S,6R,9S,12R,15S,18R,21S,24R)-6,18-bis[[4-[(2-cyclopropylimidazol-1-yl)methyl]phenyl]methyl]-3,9,15,21-tetraisobutyl-4,10,12,16,22,24-hexamethyl-1,7,13,19-tetraoxa-4,10,16,22-tetrazacyclotetracosane-2,5,8,11,14,17,20,23-octaone]",minimal effective concentration,[1],0.01 to 0.1 µM
same,minimal effective concentration,[2],1 to 10 µM
"CCOCc1nccn1Cc1ccc(C[C@H]2OC(=O)[C@H](CC(C)C)N(C)C(=O)[C@@H](C)OC(=O)[C@H](CC(C)C)N(C)C(=O)[C@@H](Cc3ccc(Cn4ccnc4COCC)cc3)OC(=O)[C@H](CC(C)C)N(C)C(=O)[C@@H](C)OC(=O)[C@H](CC(C)C)N(C)C2=O)cc1 [Example 6-20, (3S,6R,9S,12R,15S,18R,21S,24R)-6,18-bis(4-((2-(ethoxymethyl)-1H-imidazol-1-yl)methyl)benzyl)-3,9,15,21-tetraisobutyl-4,10,12,16,22,24-hexamethyl-1,7,13,19-tetraoxa-4,10,16,22-tetraazacyclotetracosan-2,5,8,11,14,17,20,23-octaone]",minimal effective concentration,[1],0.001 to 0.01 µM
same,minimal effective concentration,[2],1 to 10 µM
"CCc1nccn1Cc1ccc(C[C@H]2OC(=O)[C@H](CC(C)C)N(C)C(=O)[C@@H](C)OC(=O)[C@H](CC(C)C)N(C)C(=O)[C@@H](Cc3ccccc3)OC(=O)[C@H](CC(C)C)N(C)C(=O)[C@@H](C)OC(=O)[C@H](CC(C)C)N(C)C2=O)cc1 [Example 8-4, (3S,6R,9S,12R,15S,18R,21S,24R)-6-benzyl-18-[[4-[(2-ethylimidazol-1-yl)methyl]phenyl]methyl]-3,9,15,21-tetraisobutyl-4,10,12,16,22,24-hexamethyl-1,7,13,19-tetraoxa-4,10,16,22-tetrazacyclotetracosane-2,5,8,11,14,17,20,23-octaone]",minimal effective concentration,[1],0.01 to 0.1 µM
same,minimal effective concentration,[2],1 to 10 µM
"CC(C)C[C@H]1C(=O)O[C@H](Cc2ccc(Cn3ccnc3C(C)(C)C)cc2)C(=O)N(C)[C@@H](CC(C)C)C(=O)O[C@H](C)C(=O)N(C)[C@@H](CC(C)C)C(=O)O[C@H](Cc2ccccc2)C(=O)N(C)[C@@H](CC(C)C)C(=O)O[C@H](C)C(=O)N1C [Example 8-6, (3S,6R,9S,12R,15S,18R,21S,24R)-6-benzyl-18-[[4-[(2-tert-butylimidazol-1-yl)methyl]phenyl]methyl]-3,9,15,21-tetraisobutyl-4,10,12,16,22,24-hexamethyl-1,7,13,19-tetraoxa-4,10,16,22-tetrazacyclotetracosane-2,5,8,11,14,17,20,23-octaone]",minimal effective concentration,[1],0.01 to 0.1 µM
same,minimal effective concentration,[2],1 to 10 µM
"CC(C)C[C@H]1C(=O)O[C@H](Cc2ccc(Cn3ccnc3C3CC3)cc2)C(=O)N(C)[C@@H](CC(C)C)C(=O)O[C@H](C)C(=O)N(C)[C@@H](CC(C)C)C(=O)O[C@H](Cc2ccccc2)C(=O)N(C)[C@@H](CC(C)C)C(=O)O[C@H](C)C(=O)N1C [Example 8-7, (3S,6R,9S,12R,15S,18R,21S,24R)-6-benzyl-18-[[4-[(2-cyclopropylimidazol-1-yl)methyl]phenyl]methyl]-3,9,15,21-tetraisobutyl-4,10,12,16,22,24-hexamethyl-1,7,13,19-tetraoxa-4,10,16,22-tetrazacyclotetracosane-2,5,8,11,14,17,20,23-octaone]",minimal effective concentration,[1],0.001 to 0.01 µM
same,minimal effective concentration,[2],1 to 10 µM
"CC(C)C[C@H]1C(=O)O[C@H](Cc2ccc(Cn3ccnc3C(C)C)cc2)C(=O)N(C)[C@@H](CC(C)C)C(=O)O[C@H](C)C(=O)N(C)[C@@H](CC(C)C)C(=O)O[C@H](Cc2ccccc2)C(=O)N(C)[C@@H](CC(C)C)C(=O)O[C@H](C)C(=O)N1C [Example 8-8, (3S,6R,9S,12R,15S,18R,21S,24R)-6-benzyl-3,9,15,21-tetraisobutyl-18-(4-((2-isopropyl-1H-imidazol-1-yl)methyl)benzyl)-4,10,12,16,22,24-hexamethyl-1,7,13,19-tetraoxa-4,10,16,22-tetraazacyclotetracosan-2,5,8,11,14,17,20,23-octaone]",minimal effective concentration,[1],0.001 to 0.01 µM
same,minimal effective concentration,[2],1 to 10 µM
"CC(C)C[C@H]1C(=O)O[C@H](Cc2ccc(Cn3ccnc3CO)cc2)C(=O)N(C)[C@@H](CC(C)C)C(=O)O[C@H](C)C(=O)N(C)[C@@H](CC(C)C)C(=O)O[C@H](Cc2ccccc2)C(=O)N(C)[C@@H](CC(C)C)C(=O)O[C@H](C)C(=O)N1C [Example 8-13, (3S,6R,9S,12R,15S,18R,21S,24R)-6-benzyl-18-(4-((2-(hydroxymethyl)-1H-imidazol-1-yl)methyl)benzyl)-3,9,15,21-tetraisobutyl-4,10,12,16,22,24-hexamethyl-1,7,13,19-tetraoxa-4,10,16,22-tetraazacyclotetracosan-2,5,8,11,14,17,20,23-octaone]",minimal effective concentration,[1],0.001 to 0.01 µM
same,minimal effective concentration,[2],1 to 10 µM
